Earlier results, collected in US20240415113A1, “COMPOSITION AND METHOD FOR ATTRACTING VESPID WASPS” (BanfieldBio Inc., priority 2023, published 2024).

Experiments:
vespid wasps = details: 50 μL heptyl butyrate and 1 g chicken meat extract, separately or together in the receiving chamber
western yellowjackets = details: Oregon peach orchard, 10 days in 1969

## CCCCCCCOC(=O)CCC [Heptyl butyrate]
Vespid wasps
  trap catch comparison in words: impeded entry into traps baited with the chicken extract
Western yellowjackets
  western yellowjackets captured per trap: over 800 western yellowjackets per trap
